Values quoted from earlier work, collected in patent US7056947B2, “Aza-peptide epoxides” (Georgia Tech Research Corp., priority 2002, dated 2006).

Assays:
vignain = vignain (Vigna mungo, UniProt P12412); settings: E-64; cited from earlier work
DPPI = DPPI (Homo sapiens, UniProt P53634); settings: E-64; cited from earlier work
bleomycin hydrolase = bleomycin hydrolase (Homo sapiens, UniProt Q13867); settings: E-64; cited from earlier work
trypsin = target: T1, trypsin (Bos taurus, UniProt P00760); settings: E-64; cited from earlier work
T1 construct: gene PRSS1

caspase 1 (ICE) = caspase 1 (ICE) (Homo sapiens, UniProt P29466); settings: E-64; cited from earlier work
cathepsin X = cathepsin X (Homo sapiens, UniProt Q9UBR2); settings: E-64; cited from earlier work
cruzain = cruzain (Trypanosoma cruzi, UniProt P25779); settings: E-64; cited from earlier work
streptococcal proteinase = streptococcal proteinase (Streptococcus pyogenes, UniProt P0C0J0); settings: cited from earlier work
pepsin = pepsin (Homo sapiens, UniProt P0DJD8); settings: E-64; cited from earlier work
cathepsin H = cathepsin H (Homo sapiens, UniProt P09668); settings: E-64; cited from earlier work
cathepsin V = cathepsin V (Homo sapiens, UniProt O60911); settings: E-64; cited from earlier work
papain = target: T2, papain (Carica papaya, UniProt P00784); settings: E-64; cited from earlier work
T2 sequence (P00784 134-345): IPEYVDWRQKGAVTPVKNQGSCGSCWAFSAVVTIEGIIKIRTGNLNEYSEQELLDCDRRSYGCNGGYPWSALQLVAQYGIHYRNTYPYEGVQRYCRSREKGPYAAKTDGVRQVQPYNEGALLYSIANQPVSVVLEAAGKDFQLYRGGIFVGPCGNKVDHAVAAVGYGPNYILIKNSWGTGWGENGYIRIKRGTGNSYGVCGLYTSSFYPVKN

elastase = settings: E-64; cited from earlier work
legumain = legumain (Homo sapiens, UniProt Q99538); settings: E-64; cited from earlier work
cathepsin J = settings: E-64, rate not given; cited from earlier work
cathepsin S = cathepsin S (Homo sapiens, UniProt P25774); settings: E-64; cited from earlier work
plasmin = plasmin (Homo sapiens, UniProt P00747); settings: E-64; cited from earlier work
cathepsin L = cathepsin L (Homo sapiens, UniProt P07711); settings: E-64; cited from earlier work
cathepsin B = cathepsin B (Homo sapiens, UniProt P07858); settings: E-64; cited from earlier work
ficin = settings: E-64; cited from earlier work
α-chymotrypsin = α-chymotrypsin (Bos taurus, UniProt P00766); settings: E-64; cited from earlier work
mold acid protease = settings: E-64; cited from earlier work
thermolysin = thermolysin (Bacillus thermoproteolyticus, UniProt P00800); settings: E-64; cited from earlier work
collagenase = settings: E-64; cited from earlier work
clostripain = clostripain (Hathewaya histolytica, UniProt P09870); settings: E-64; cited from earlier work
LDH = settings: E-64; cited from earlier work
cathepsin F = cathepsin F (Homo sapiens, UniProt Q9UBX1); settings: E-64, rate not given; cited from earlier work
kallikrein = settings: E-64; cited from earlier work
cathepsin O = settings: E-64; cited from earlier work
calpain II = calpain II (Homo sapiens, UniProt P17655); settings: E-64; cited from earlier work
cathepsin K = cathepsin K (Homo sapiens, UniProt P43235); settings: E-64; cited from earlier work
stem bromelain = stem bromelain (Ananas comosus, UniProt P14518); settings: E-64; cited from earlier work
papaya proteinase IV = papaya proteinase IV (Carica papaya, UniProt P05994); settings: E-64; cited from earlier work
fruit bromelain = fruit bromelain (Ananas comosus, UniProt O23791); settings: E-64; cited from earlier work
fruit bromelain, sequence (O23791 122-351): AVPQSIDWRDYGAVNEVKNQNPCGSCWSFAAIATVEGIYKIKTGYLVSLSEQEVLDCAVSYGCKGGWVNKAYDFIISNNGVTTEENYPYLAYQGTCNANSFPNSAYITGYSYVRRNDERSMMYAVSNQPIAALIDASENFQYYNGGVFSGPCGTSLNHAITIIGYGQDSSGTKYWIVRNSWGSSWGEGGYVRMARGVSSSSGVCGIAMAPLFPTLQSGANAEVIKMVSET

thermolysin, sequence (P00800 233-548): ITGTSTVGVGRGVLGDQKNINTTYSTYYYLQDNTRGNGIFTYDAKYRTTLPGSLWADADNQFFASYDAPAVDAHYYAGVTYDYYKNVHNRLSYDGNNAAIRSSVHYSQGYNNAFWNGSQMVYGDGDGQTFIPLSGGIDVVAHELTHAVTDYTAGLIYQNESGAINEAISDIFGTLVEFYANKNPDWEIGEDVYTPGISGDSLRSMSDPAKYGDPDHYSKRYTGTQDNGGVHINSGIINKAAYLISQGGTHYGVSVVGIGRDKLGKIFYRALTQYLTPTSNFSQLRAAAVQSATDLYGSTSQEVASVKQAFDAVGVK
cathepsin X, sequence (Q9UBR2 62-303): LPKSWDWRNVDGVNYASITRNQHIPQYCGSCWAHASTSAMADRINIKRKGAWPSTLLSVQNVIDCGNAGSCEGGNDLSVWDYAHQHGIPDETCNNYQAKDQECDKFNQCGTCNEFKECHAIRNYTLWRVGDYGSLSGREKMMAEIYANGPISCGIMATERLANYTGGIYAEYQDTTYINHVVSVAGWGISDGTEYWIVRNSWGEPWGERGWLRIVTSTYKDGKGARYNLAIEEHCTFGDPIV
stem bromelain, sequence (P14518 whole entry): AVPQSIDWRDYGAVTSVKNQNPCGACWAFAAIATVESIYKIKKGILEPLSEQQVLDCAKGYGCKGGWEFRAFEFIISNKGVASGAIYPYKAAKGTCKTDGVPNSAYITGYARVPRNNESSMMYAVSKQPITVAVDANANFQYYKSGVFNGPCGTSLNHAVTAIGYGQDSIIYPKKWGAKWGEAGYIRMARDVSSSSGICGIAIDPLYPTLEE
cathepsin H, sequence (P09668 98-335, species assumed): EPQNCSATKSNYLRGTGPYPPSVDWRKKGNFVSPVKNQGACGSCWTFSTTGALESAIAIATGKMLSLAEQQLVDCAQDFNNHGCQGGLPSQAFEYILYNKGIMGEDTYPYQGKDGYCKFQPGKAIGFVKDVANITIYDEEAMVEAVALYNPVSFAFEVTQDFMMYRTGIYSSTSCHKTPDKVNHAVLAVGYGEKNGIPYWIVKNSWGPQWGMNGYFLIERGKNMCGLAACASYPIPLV
bleomycin hydrolase, sequence (Q13867 whole entry, species assumed): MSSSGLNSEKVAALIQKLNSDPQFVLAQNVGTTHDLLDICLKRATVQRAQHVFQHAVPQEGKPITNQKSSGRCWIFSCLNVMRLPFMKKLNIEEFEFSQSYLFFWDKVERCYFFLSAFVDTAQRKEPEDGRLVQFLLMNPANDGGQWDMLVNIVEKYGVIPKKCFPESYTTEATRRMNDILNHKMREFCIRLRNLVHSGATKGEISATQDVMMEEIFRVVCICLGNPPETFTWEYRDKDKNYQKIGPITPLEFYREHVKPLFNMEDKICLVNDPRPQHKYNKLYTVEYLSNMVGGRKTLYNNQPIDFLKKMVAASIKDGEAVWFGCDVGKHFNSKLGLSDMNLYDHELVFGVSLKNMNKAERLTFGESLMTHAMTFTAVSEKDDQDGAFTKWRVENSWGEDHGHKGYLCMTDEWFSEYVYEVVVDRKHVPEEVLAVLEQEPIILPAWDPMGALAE
T1 sequence (P00760 24-246): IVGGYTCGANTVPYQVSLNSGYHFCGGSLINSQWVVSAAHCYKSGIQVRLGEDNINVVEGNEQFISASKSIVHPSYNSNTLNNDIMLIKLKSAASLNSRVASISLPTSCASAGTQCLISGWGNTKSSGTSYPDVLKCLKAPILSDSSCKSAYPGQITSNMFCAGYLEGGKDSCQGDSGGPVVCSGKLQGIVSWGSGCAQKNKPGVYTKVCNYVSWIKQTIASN
caspase 1 (ICE), sequence (P29466 120-404, species assumed): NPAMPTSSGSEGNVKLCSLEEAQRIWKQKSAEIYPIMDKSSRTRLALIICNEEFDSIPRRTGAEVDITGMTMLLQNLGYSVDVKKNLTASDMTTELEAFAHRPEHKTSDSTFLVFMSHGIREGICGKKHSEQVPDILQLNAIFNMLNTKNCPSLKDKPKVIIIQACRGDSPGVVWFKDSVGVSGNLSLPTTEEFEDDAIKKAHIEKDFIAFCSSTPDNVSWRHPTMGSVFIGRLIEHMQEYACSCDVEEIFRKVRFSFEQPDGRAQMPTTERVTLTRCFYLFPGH
plasmin, sequence (P00747 97-810, species assumed): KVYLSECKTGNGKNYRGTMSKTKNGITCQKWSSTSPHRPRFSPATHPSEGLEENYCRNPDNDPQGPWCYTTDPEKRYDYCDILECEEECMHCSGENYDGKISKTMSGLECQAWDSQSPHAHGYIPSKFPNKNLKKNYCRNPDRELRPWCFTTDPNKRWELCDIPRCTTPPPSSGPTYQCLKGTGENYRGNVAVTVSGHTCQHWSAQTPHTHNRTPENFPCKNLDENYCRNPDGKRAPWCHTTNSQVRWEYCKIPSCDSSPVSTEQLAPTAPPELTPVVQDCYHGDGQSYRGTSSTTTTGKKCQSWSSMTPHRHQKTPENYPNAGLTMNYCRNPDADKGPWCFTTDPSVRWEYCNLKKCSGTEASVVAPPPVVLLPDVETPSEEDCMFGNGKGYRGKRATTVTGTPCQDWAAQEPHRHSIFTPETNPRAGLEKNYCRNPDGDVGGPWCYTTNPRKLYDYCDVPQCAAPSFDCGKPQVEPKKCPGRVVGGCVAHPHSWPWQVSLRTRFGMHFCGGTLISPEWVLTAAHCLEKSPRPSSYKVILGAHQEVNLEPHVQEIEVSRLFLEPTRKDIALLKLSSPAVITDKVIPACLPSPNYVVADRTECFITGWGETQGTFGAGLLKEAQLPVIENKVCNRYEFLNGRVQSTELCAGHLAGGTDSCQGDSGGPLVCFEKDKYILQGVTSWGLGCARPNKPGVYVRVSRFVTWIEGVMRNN
clostripain, sequence (P09870 51-526): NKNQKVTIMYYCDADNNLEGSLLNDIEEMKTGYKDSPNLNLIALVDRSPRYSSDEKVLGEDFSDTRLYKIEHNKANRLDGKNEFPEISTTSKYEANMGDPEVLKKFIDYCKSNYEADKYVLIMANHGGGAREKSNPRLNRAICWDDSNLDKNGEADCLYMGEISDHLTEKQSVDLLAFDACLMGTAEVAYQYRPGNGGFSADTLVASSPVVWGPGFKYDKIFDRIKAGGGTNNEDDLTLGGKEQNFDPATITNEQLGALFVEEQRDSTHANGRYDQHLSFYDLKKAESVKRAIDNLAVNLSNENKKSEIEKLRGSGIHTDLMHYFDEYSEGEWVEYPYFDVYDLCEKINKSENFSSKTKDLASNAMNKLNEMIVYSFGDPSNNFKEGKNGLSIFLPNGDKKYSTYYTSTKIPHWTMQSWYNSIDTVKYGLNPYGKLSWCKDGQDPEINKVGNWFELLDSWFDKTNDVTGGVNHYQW
papaya proteinase IV, sequence (P05994 133-348): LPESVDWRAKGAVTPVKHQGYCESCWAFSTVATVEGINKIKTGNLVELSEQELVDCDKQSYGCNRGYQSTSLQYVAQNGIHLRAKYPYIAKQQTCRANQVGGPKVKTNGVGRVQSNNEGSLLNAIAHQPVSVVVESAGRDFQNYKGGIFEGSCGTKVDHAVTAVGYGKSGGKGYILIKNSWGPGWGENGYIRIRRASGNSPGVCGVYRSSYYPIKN
cathepsin F, sequence (Q9UBX1 271-484, species assumed): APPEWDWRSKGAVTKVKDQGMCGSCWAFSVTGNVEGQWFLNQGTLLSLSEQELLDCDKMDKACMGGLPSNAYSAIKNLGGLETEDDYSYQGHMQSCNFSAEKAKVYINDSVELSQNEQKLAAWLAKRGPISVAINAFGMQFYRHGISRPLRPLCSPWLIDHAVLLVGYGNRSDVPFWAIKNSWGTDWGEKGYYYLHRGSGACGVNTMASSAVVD
calpain II, sequence (P17655 whole entry): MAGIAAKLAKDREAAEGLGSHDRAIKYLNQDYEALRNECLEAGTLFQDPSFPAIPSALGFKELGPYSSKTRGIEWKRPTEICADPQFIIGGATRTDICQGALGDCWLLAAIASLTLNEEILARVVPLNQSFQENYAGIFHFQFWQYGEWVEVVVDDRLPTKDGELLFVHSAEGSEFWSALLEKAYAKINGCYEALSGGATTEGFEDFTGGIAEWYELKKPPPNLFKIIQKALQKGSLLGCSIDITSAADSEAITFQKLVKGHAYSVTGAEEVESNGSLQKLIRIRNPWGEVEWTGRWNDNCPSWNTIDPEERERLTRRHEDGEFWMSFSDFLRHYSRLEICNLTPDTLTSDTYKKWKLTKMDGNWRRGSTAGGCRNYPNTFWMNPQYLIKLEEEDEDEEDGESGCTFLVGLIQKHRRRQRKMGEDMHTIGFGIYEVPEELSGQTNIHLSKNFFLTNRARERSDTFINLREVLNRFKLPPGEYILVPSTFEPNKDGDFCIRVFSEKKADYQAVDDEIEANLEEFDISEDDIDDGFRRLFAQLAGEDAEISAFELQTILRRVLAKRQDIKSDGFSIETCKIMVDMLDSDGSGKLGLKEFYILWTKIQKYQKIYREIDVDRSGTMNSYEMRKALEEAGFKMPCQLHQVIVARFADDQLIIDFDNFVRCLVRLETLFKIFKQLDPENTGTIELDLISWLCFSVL
calpain II, sequence (P04632 whole entry partner): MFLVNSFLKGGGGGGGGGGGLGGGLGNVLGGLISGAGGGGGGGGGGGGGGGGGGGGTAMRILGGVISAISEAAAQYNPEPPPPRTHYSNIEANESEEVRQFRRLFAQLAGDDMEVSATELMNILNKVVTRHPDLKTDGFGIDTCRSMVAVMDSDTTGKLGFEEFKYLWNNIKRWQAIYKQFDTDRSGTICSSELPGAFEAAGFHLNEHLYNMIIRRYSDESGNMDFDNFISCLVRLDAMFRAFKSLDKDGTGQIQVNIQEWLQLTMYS

## CC(C)C[C@H](NC(=O)[C@H]1O[C@@H]1C(=O)O)C(=O)NCCCCNC(=N)N [E-64, N-(N-(L-3-trans-carboxyoxiran-2-carbonyl)-L-leucyl)agmatine]
vignain
  rate, vignain: 32,500 M^−1 s^−1
DPPI
  rate, DPPI: 100 M⁻¹ s⁻¹
Bleomycin hydrolase
  IC50: > 160000 nM
trypsin
  enzymes not inactivated: trypsin: trypsin
Caspase 1 (ICE)
  enzymes not inactivated: caspase 1 (ICE): caspase 1 (ICE)
Cathepsin X
  rate, cathepsin X: 775 M⁻¹ s⁻¹
cruzain
  rate, cruzain: 70,600 M^−1 s^−1
Streptococcal proteinase
  rate, streptococcal proteinase: 624 M⁻¹ s⁻¹
pepsin
  enzymes not inactivated: pepsin: pepsin
Cathepsin H
  rate, cathepsin H: 4,000 M^−1 s^−1
Cathepsin V
  IC50: > 100 nM
papain
  ID50, papain: 0.104 (ID50)
elastase
  enzymes not inactivated: elastase: elastase
legumain
  enzymes not inactivated: legumain: legumain
Cathepsin J
  enzymes inactivated: cathepsin J: cathepsin J
Cathepsin S
  rate, cathepsin S: 99,000 M^−1 s^−1
plasmin
  enzymes not inactivated: plasmin: plasmin
Cathepsin L
  rate, cathepsin L: 96,250 M^−1 s^−1
Cathepsin B
  rate, cathepsin B: 89,400 M^−1 s^−1
ficin
  ID50, ficin: 0.084 (ID50)
α-chymotrypsin
  enzymes not inactivated: α-chymotrypsin: α-chymotrypsin
Mold acid protease
  enzymes not inactivated: mold acid protease: mold acid protease
thermolysin
  enzymes not inactivated: thermolysin: thermolysin
collagenase
  enzymes not inactivated: collagenase: collagenase
clostripain
  enzymes not inactivated: clostripain: clostripain
LDH
  enzymes not inactivated: LDH: LDH
Cathepsin F
  enzymes inactivated: cathepsin F: cathepsin F
kallikrein
  enzymes not inactivated: kallikrein: kallikrein
Cathepsin O
  IC50: > 100000 nM
Calpain II
  rate, calpain II: 7,500 M^−1 s^−1
Cathepsin K
  Ki: 1.8 nM
Stem bromelain
  ID50, stem bromelain: 0.025 (ID50)
Papaya proteinase IV
  rate, papaya proteinase IV: 58,000 M^−1 s^−1
Fruit bromelain
  ID50, fruit bromelain: 0.110 (ID50)
